Measurements taken from patent publication US7205329B2, “Modulators of CRTH2 activity” (Microbia, Inc., priority 2003, dated 2007).

Assays:
CCR3 = settings: Stubbs et al. 2002, J Biol Chem 277:26012–26020; cited from earlier work
neutrophils = test: CD11b expression assay, neutrophil control for CRTH2 agonist activity; assay type: cell-based, human; settings: leukocytes incubated with test compound 10 min at room temperature; flow cytometry
Description: CRTH2 agonists increase the expression of CD11b on eosinophils. […] They do, however, express receptors for other lipid mediators, including 5-oxo-6,8,11,14-eicosatetraenoic acid (5-oxo-ETE), leukotriene B4 (LTB4), and platelet activating factor. Therefore, any increased expression of CD11b by neutrophils is likely to be caused by an activity other than activation of CRTH2. Accordingly, preferred compounds increase CD11b expression on eosinophils, but not on neutrophils.
The potential CRTH2 agonist activity of certain compounds was tested using a CD11b expression assay using essentially the method described by Monneret et al. (J Pharmacol Exp Ther 304:349–55, 2003), and the results of this analysis are presented in FIG. 1 where the results of two separate experiments are reported.
Briefly, leukocytes (0.5 ml; 10^6/ml cells) in PBS containing 0.9 mM CaCl2 and 0.5 mM MgCl2) were incubated with a test compound at room temperature for 10 min. The incubations were terminated by the addition of ice-cold FACSFlow (BD Biosciences; Cat# 342003) and centrifugation (400 g for 5 min at 4° C.). […] The distribution of fluorescence intensities among 60,000 cells was measured by flow cytometry. Eosinophils were gated out on the basis of their granularity (high side scatter) and labeling with VLA-4 (PE fluorescence). CD11b was then measured in the eosinophil region on the basis of fluorescence due to FITC. […]

| SMILES | expression of CCR3, the receptor for eotaxin (CCR3) | expression of CD11b on neutrophils (neutrophils) |
| --- | --- | --- |
| COc1ccc2c(c1)c(CC(=O)O)c(C)n2C(=O)c1ccc(Cl)cc1 [indomethacin] | reduces expression of CCR3 |  |
| CCCCCC=CCC=CCC=CC=CC(=O)CCCC(=O)O [5-oxo-ETE, 5-oxo-6,8,11,14-eicosatetraenoic acid] |  | increased expression of CD11b on neutrophils |
